For the experiment, the target named is Wee1-like protein kinase (Homo sapiens, UniProt P30291). Put plainly: In-Vitro Assay. On the procedure:
The inhibitory effect of the compounds on the enzyme activity of recombinant protein Wee-1 was determined by HTRF. The procedures are as follows: After DMSO or serially diluted compounds (up to 200 nM, 1:5 diluted) and recombinant proteins were co-incubated in a kinase buffer at 37° C. for 30 min before Fluorescein-PolyGAT and ATP were added, and the reaction was initiated by addition of a substrate. After incubation at room temperature for 90 min, an antibody and a detection solution were added, and after further incubation at room temperature for 60 min, fluorescence values were detected (excitation wavelength: 340 nm, emission wavelengths: 495 and 520 nm). The 520 nm/495 nm fluorescence intensity ratio value was calculated, and compared with that of the DMSO group, and then the inhibition percentages and IC50 values of the compounds were calculated.

Wee1-like protein kinase, sequence (P30291 whole entry): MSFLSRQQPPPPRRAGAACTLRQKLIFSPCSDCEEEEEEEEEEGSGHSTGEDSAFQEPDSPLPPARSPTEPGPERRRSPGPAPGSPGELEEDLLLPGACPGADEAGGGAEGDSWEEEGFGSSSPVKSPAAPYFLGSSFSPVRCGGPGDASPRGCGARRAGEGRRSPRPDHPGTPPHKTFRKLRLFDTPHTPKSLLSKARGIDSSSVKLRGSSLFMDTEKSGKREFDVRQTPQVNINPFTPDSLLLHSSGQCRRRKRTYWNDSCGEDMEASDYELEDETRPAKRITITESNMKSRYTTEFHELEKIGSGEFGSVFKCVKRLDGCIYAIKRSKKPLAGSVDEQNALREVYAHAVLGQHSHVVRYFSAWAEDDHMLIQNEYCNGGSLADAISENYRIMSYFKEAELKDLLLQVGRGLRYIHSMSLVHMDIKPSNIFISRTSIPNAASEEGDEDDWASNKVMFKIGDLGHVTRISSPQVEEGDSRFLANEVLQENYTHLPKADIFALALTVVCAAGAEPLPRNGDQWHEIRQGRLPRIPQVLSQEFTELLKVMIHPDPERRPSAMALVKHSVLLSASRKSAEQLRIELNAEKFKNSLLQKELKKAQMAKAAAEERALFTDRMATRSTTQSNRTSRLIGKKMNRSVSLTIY

One may read the IC50 as the point on the concentration scale where inhibition reaches its midpoint. A low value points to inhibition by little substance. In turn, `CC(C)Cc1cc(Nc2ncc(C#N)c(Nc3cccc(N=S(C)(C)=O)n3)n2)cc2c1CCN(C)C2` [US20240158369, Compound 87] registered an IC50 below 10 nM.
